Counter-ions that a name gives are not always drawn. Like-named read-outs stand apart in the source and are kept apart here.
Columns and labels:
WT KRAS = WT KRAS (Homo sapiens, UniProt P01116); test: KRAS WT Probe Displacement Assay (TR-FRET, GDP-loaded); assay type: binding
Source text: (§1) The synthetic routes of probe 1 and 2, which have been disclosed in PCT/CN2022/070676, are hereby incorporated herein.

KRAS G12D = KRAS G12D (Homo sapiens, UniProt P01116, G12D); test: KRAS G12D Probe Displacement Assay (TR-FRET, GDP-loaded); assay type: binding
KRAS G12D, sequence (P01116 1-188 isoform P01116-2 G12D): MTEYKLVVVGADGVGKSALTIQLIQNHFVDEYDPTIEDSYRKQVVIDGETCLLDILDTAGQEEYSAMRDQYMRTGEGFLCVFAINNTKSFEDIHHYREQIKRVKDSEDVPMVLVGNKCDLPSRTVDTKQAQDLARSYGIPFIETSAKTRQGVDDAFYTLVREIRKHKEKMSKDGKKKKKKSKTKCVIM
Source text: as §1

[1] = KRAS^WT Probe Displacement Assay IC50, KRAS WT
[2] = KRAS^G12D Probe Displacement Assay IC50, KRAS G12D
[3] = KRAS WT, read-out: KRAS^WT Probe Displacement Assay IC50
[4] = KRAS G12D, read-out: KRAS^G12D Probe Displacement Assay IC50

WT KRAS, sequence (P01116 1-188 isoform P01116-2): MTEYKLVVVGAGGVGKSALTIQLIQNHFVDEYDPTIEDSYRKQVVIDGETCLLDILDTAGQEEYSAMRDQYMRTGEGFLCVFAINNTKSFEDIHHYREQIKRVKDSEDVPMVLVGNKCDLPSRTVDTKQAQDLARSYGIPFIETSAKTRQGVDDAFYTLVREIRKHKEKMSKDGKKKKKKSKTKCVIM

`Cc1cc(N)cc(-c2nc3c4c(nc(OCC5(CN6C7COCC6C7)CC5)nc4c2F)N2C[C@H]4CC[C@H](N4)[C@H]2CCO3)c1C(F)(F)F` [Example 104, 3-((6aR,7S,10R)-13-((1-((3-oxa-6-azabicyclo[3.1.1]heptan-6-yl)methyl)cyclopropyl)methoxy)-1-fluoro-5,6,6a,7,8,9,10,11-octahydro-4-oxa-3,11a,12,14,15-pentaaza-7,10-methanocyclohepta [4,5]cycloocta [1,2,3-de]naphthalen-2-yl)-5-methyl-4-(trifluoromethyl) aniline formate] was tested, and the IC50 (WT KRAS; [1]) was 3 to 1000 nM and the IC50 (KRAS G12D; [2]) was < 0.3 nM.
`Cc1cc(N)cc(-c2nc3c4c(nc(OCC5(CN6CC7CC(C6)O7)CC5)nc4c2F)N2C[C@H]4CC[C@H](N4)[C@H]2CCO3)c1C(F)(F)F` [Example 105, 3-((6aR,7S,10R)-13-((1-((6-oxa-3-azabicyclo [3.1.1]heptan-3-yl)methyl)cyclopropyl)methoxy)-1-fluoro-5,6,6a,7,8,9,10,11-octahydro-4-oxa-3,11a,12,14,15-pentaaza-7,10-methanocyclohepta [4,5]cycloocta [1,2,3-de]naphthalen-2-yl)-5-methyl-4-(trifluoromethyl)aniline] was tested, and the IC50 (WT KRAS; [3]) was 0.3 to 3 nM and the IC50 (KRAS G12D; [4]) was < 0.3 nM.
For `Cc1cc(N)cc(-c2nc3c4c(nc(OCC5(CN6C[C@H]7CC[C@@H](C6)O7)CC5)nc4c2F)N2C[C@H]4CC[C@H](N4)[C@H]2CCO3)c1C(F)(F)F` [Example 106, 3-((6aR,7S,10R)-13-((1-(((1R,5S)-8-oxa-3-azabicyclo [3.2.1]octan-3-yl)methyl)cyclopropyl)methoxy)-1-fluoro-5,6,6a, 7,8,9,10,11-octahydro-4-oxa-3,11a,12,14,15-pentaaza-7,10-methanocyclohepta [4,5]cycloocta [1,2,3-de]naphthalen-2-yl)-5-methyl-4-(trifluoromethyl)aniline], the IC50 (WT KRAS; [3]) was 3 to 1000 nM and the IC50 (KRAS G12D; [4]) was < 0.3 nM.
In the case of `Cc1cc(N)cc(-c2nc3c4c(nc(OCC5(CN6[C@@H]7CC[C@H]6COC7)CC5)nc4c2F)N2C[C@H]4CC[C@H](N4)[C@H]2CCO3)c1C(F)(F)F` [Example 107, 3-((6aR,7S,10R)-13-((1-(((1R,5S)-3-oxa-8-azabicyclo [3.2.1]octan-8-yl)methyl)cyclopropyl)methoxy)-1-fluoro-5,6,6a,7,8,9,10,11-octahydro-4-oxa-3,11a,12,14,15-pentaaza-7,10-methanocyclohepta [4,5]cycloocta [1,2,3-de]naphthalen-2-yl)-5-methyl-4-(trifluoromethyl)aniline], the IC50 (WT KRAS; [3]) is reported as 3 to 1000 nM and the IC50 (KRAS G12D; [4]) is reported as < 0.3 nM.
`Cc1cc(N)cc(-c2nc3c4c(nc(OCC5(CN6CCn7cncc7C6)CC5)nc4c2F)N2C[C@H]4CC[C@H](N4)[C@H]2CCO3)c1C(F)(F)F` [Example 108, 3-((6aR,7S,10R)-13-((1-((5,6-dihydroimidazo [1,5-a]pyrazin-7(8H)-yl)methyl)cyclopropyl)methoxy)-1-fluoro-5,6,6a,7,8,9, 10,11-octahydro-4-oxa-3,11a,12,14,15-pentaaza-7,10-methanocyclohepta [4,5]cycloocta [1,2,3-de]naphthalen-2-yl)-5-methyl-4-(trifluoromethyl)aniline] was tested, and the IC50 (WT KRAS; [3]) was 3 to 1000 nM and the IC50 (KRAS G12D; [4]) was 0.3 to 3 nM.
For `COC1CCN(CC2(COc3nc4c5c(nc(-c6cc(N)cc(C)c6C(F)(F)F)c(F)c5n3)OCC[C@@H]3[C@@H]5CC[C@H](CN43)N5)CC2)CC1` [Example 110, 3-((6aR,7S,10R)-1-fluoro-13-((1-((4-methoxypiperidin-1-yl)methyl)cyclopropyl)methoxy)-5,6,6a,7,8,9,10,11-octahydro-4-oxa-3,11a,12,14,15-pentaaza-7,10-methanocyclohepta[4,5]cycloocta[1,2,3-de]naphthalen-2-yl)-5-methyl-4-(trifluoromethyl)aniline], the IC50 (WT KRAS; [3]) was 3 to 1000 nM and the IC50 (KRAS G12D; [4]) was < 0.3 nM.
`Cc1cc(N)cc(-c2nc3c4c(nc(OCC5(CN6CC=CC6)CC5)nc4c2F)N2C[C@H]4CC[C@H](N4)[C@H]2CCO3)c1C(F)(F)F` [Example 111, 3-((6aR,7S,10R)-13-((1-((2,5-dihydro-1H-pyrrol-1-yl)methyl)cyclopropyl)methoxy)-1-fluoro-5,6,6a,7,8,9,10,11-octahydro-4-oxa-3,11a,12,14,15-pentaaza-7,10-methanocyclohepta [4,5]cycloocta [1,2,3-de]naphthalen-2-yl)-5-methyl-4-(trifluoromethyl) aniline] was tested, and the IC50 (WT KRAS; [1]) was 3 to 1000 nM and the IC50 (KRAS G12D; [2]) was < 0.3 nM.
`Cc1cc(N)cc(-c2nc3c4c(nc(OCC5(CN6CC=CCC6)CC5)nc4c2F)N2C[C@H]4CC[C@H](N4)[C@H]2CCO3)c1C(F)(F)F` [Example 112, 3-((6aR,7S,10R)-13-((1-((3,6-dihydropyridin-1(2H)-yl)methyl)cyclopropyl)methoxy)-1-fluoro-5,6,6a, 7,8,9,10,11-octahydro-4-oxa-3,11a,12,14,15-pentaaza-7,10-methanocyclohepta [4,5]cycloocta [1,2,3-de]naphthalen-2-yl)-5-methyl-4-(trifluoromethyl) aniline] was tested, and the IC50 (WT KRAS; [1]) was 3 to 1000 nM and the IC50 (KRAS G12D; [2]) was < 0.3 nM.
For `Cc1cc(N)cc(-c2nc3c4c(nc(OCC5(CN6CCC(C(F)(F)F)CC6)CC5)nc4c2F)N2C[C@H]4CC[C@H](N4)[C@H]2CCO3)c1C(F)(F)F` [Example 113, 3-((6aR,7S,10R)-1-fluoro-13-((1-((4-(trifluoromethyl)piperidin-1-yl)methyl)cyclopropyl)methoxy)-5,6,6a,7,8,9,10,11-octahydro-4-oxa-3,11a,12,14,15-pentaaza-7,10-methanocyclohepta [4,5]cycloocta [1,2,3-de]naphthalen-2-yl)-5-methyl-4-(trifluoromethyl) aniline], the IC50 (WT KRAS; [1]) was 0.3 to 3 nM and the IC50 (KRAS G12D; [2]) was < 0.3 nM.
In the case of `Cc1cc(N)cc(-c2nc3c4c(nc(OCC5(CN6CCC(O)(C(F)(F)F)CC6)CC5)nc4c2F)N2C[C@H]4CC[C@H](N4)[C@H]2CCO3)c1C(F)(F)F` [Example 114, 1-((1-((((6aR,7S,10R)-2-(5-amino-3-methyl-2-(trifluoromethyl)phenyl)-1-fluoro-5,6,6a,7,8,9,10,11-octahydro-4-oxa-3,11a,12,14,15-pentaaza-7,10-methanocyclohepta [4,5]cycloocta [1,2,3-de]naphthalen-13-yl)oxy)methyl)cyclopropyl)methyl)-4-(trifluoromethyl) piperidin-4-ol], the IC50 (WT KRAS; [3]) is reported as 0.3 to 3 nM and the IC50 (KRAS G12D; [4]) is reported as < 0.3 nM.
For `Cc1cc(N)cc(-c2nc3c4c(nc(OCC5(CN6CCC(C)(O)CC6)CC5)nc4c2F)N2C[C@H]4CC[C@H](N4)[C@H]2CCO3)c1C(F)(F)F` [Example 115, 1-((1-((((6aR,7S, 10R)-2-(5-amino-3-methyl-2-(trifluoromethyl)phenyl)-1-fluoro-5,6,6a,7,8,9,10,11-octahydro-4-oxa-3, 11a,12,14,15-pentaaza-7,10-methanocyclohepta [4,5]cycloocta[1,2,3-de]naphthalen-13-yl)oxy)methyl)cyclopropyl)methyl)-4-methylpiperidin-4-ol], the IC50 (WT KRAS; [3]) was 0.3 to 3 nM and the IC50 (KRAS G12D; [4]) was < 0.3 nM.
In the case of `Cc1cc(N)cc(-c2nc3c4c(nc(OCC5(CN6CCCC(O)(C(F)(F)F)C6)CC5)nc4c2F)N2C[C@H]4CC[C@H](N4)[C@H]2CCO3)c1C(F)(F)F` (stereo partly drawn) [Example 117, 1-((1-((((6aR,7S,10R)-2-(5-amino-3-methyl-2-(trifluoromethyl)phenyl)-1-fluoro-5,6,6a,7,8,9,10,11-octahydro-4-oxa-3,11a,12,14,15-pentaaza-7,10-methanocyclohepta [4,5]cycloocta [1,2,3-de]naphthalen-13-yl)oxy)methyl)cyclopropyl)methyl)-3-(trifluoromethyl) piperidin-3-ol], the IC50 (WT KRAS; [3]) is reported as 3 to 1000 nM and the IC50 (KRAS G12D; [4]) is reported as < 0.3 nM.

From patent US20260347373A1, “HETEROCYCLIC COMPOUNDS, COMPOSITIONS THEREOF, AND METHODS OF TREATMENT THEREWITH” (BeOne Medicines I GmbH, priority 2023, published 2026)
